From ChEMBL document CHEMBL1151244, “Synthesis of A-seco derivatives of betulinic acid with cytotoxic activity” (J Nat Prod, 2004)

Key:
Assay type in all cases: functional, cell-based
[1] = test system: K562; assay: Cytotoxicity against human K562 cells after 72 hrs by MTT assay; conditions: K562, 72 h
[2] = test system: CCRF-CEM; assay: Cytotoxicity against human CEM cells after 72 hrs by MTT assay
[3] = test system: K562; assay: Cytotoxicity against paclitaxel-resistant human K562 cells after 72 hrs by MTT assay; conditions: K562, 72 h
[4] = test system: HT-29; assay: Cytotoxicity against human HT-29 cells after 72 hrs by MTT assay; conditions: HT-29, 72 h
[5] = test system: PC-3; assay: Cytotoxicity against human PC3 cells after 72 hrs by MTT assay; conditions: PC-3, 72 h
[6] = test system: DU-145; assay: Cytotoxicity against human DU145 cells after 72 hrs by MTT assay; conditions: DU-145, 72 h
[7] = test system: A549; assay: Cytotoxicity against human A549 cells after 72 hrs by MTT assay; conditions: A549, 72 h
[8] = test system: MCF7; assay: Cytotoxicity against human MCF7 cells after 72 hrs by MTT assay; conditions: MCF7, 72 h
[9] = test system: SK-MEL-2; assay: Cytotoxicity against human SK-MEL-2 cells after 72 hrs by MTT assay; conditions: SK-MEL-2, 72 h

C=C(C)[C@@H]1CC[C@]2(C(=O)O)CC[C@]3(C)[C@H](CC[C@@H]4[C@@]5(C)CC[C@H](OC(C)=O)C(C)(C)[C@@H]5CC[C@]43C)[C@@H]12
IC50 [1]: 18 µM
IC50 [2]: 200 µM
IC50 [3]: 19 µM
IC50 [4]: 24 µM
IC50 [5]: 17 µM

C=C(C)[C@@H]1CC[C@]2(C(=O)OC(C)=O)CC[C@]3(C)[C@H](CC[C@@H]4[C@@]5(C)CC[C@H](OC(C)=O)C(C)(C)[C@@H]5CC[C@]43C)[C@@H]12
IC50 [1]: 88 µM
IC50 [2]: 22 µM
IC50 [3]: 108 µM
IC50 [4]: 110 µM
IC50 [5]: 93 µM

C=C(C)[C@@H]1CC[C@]2(C(=O)OC(C)=O)CC[C@]3(C)[C@H](CC[C@@H]4[C@@]5(C)CC(=O)OC(=O)C(C)(C)[C@@H]5CC[C@]43C)[C@@H]12
IC50 [2]: 6 µM

C=C(C)[C@@H]1CC[C@]2(COC(C)=O)CC[C@]3(C)[C@H](CC[C@@H]4[C@@](C)(CCOC(C)=O)[C@H](C(C)(C)COC(C)=O)CC[C@]43C)[C@@H]12
IC50 [2]: 250 µM

C=C(C)[C@@H]1CC[C@]2(C(=O)OC)CC[C@]3(C)[C@H](CC[C@@H]4[C@@]5(C)C=C(OC(C)=O)C(=O)C(C)(C)[C@@H]5CC[C@]43C)[C@@H]12
IC50 [1]: 60 µM
IC50 [2]: 91 µM
IC50 [3]: 25 µM
IC50 [4]: 46 µM
IC50 [5]: 98 µM

C=C(C)[C@@H]1CC[C@]2(C(=O)O)CC[C@]3(C)[C@H](CC[C@@H]4[C@@](C)(CC(=O)O)[C@H](C(C)(C)C(=O)O)CC[C@]43C)[C@@H]12
IC50 [1]: 145 µM
IC50 [2]: 250 µM
IC50 [3]: 250 µM
IC50 [4]: 219 µM
IC50 [5]: 169 µM

C=C(C)[C@@H]1CC[C@]2(C(=O)OC)CC[C@]3(C)[C@H](CC[C@@H]4[C@@]5(C)C=C(OC)C(=O)C(C)(C)[C@@H]5CC[C@]43C)[C@@H]12
IC50 [1]: 11 µM
IC50 [2]: 5 µM
IC50 [3]: 10 µM
IC50 [4]: 19 µM
IC50 [5]: 20 µM

C=C(C)[C@@H]1CC[C@]2(C(=O)OC)CC[C@]3(C)[C@H](CC[C@@H]4[C@@]5(C)[C@@H](O)OC(=O)C(C)(C)[C@@H]5CC[C@]43C)[C@@H]12
IC50 [1]: 119 µM
IC50 [2]: 250 µM
IC50 [3]: 85 µM
IC50 [4]: 65 µM
IC50 [5]: 116 µM

C=C(C)[C@@H]1CC[C@]2(C(=O)OC)CC[C@]3(C)[C@H](CC[C@@H]4[C@@](C)(CC(=O)O)[C@H](C(C)(C)C(=O)O)CC[C@]43C)[C@@H]12
IC50 [1]: 77 µM
IC50 [2]: 113 µM
IC50 [3]: 75 µM
IC50 [4]: 88 µM
IC50 [5]: 63 µM

C=C(C)[C@@H]1CC[C@]2(CO)CC[C@]3(C)[C@H](CC[C@@H]4[C@@](C)(CCO)[C@H](C(C)(C)CO)CC[C@]43C)[C@@H]12
IC50 [1]: 9 µM
IC50 [2]: 20 µM
IC50 [3]: 11 µM
IC50 [4]: 11 µM
IC50 [5]: 49 µM

C=C(C)[C@@H]1CC[C@]2(C(=O)O)CC[C@]3(C)[C@H](CC[C@@H]4[C@@]5(C)CC(=O)OC(=O)C(C)(C)[C@@H]5CC[C@]43C)[C@@H]12
IC50 [2]: 101 µM

C=C(C)[C@@H]1CC[C@]2(C(=O)O)CC[C@]3(C)[C@H](CC[C@@H]4[C@@]5(C)C=C(OC(C)=O)C(=O)C(C)(C)[C@@H]5CC[C@]43C)[C@@H]12
IC50 [6]: 18 µM
IC50 [7]: 11 µM
IC50 [1]: 5 µM
IC50 [2]: 20 µM
IC50 [8]: 17 µM
IC50 [3]: 16 µM
IC50 [4]: 7 µM
IC50 [5]: 11 µM
IC50 [9]: 24 µM

C=C(C)[C@@H]1CC[C@]2(C(=O)OC(=O)[C@]34CC[C@@H](C(=C)C)[C@@H]3[C@H]3CC[C@@H]5[C@@]6(C)CC[C@H](OC(C)=O)C(C)(C)[C@@H]6CC[C@@]5(C)[C@]3(C)CC4)CC[C@]3(C)[C@H](CC[C@@H]4[C@@]5(C)CC[C@H](OC(C)=O)C(C)(C)[C@@H]5CC[C@]43C)[C@@H]12
IC50 [1]: 104 µM
IC50 [2]: 240 µM
IC50 [3]: 242 µM
IC50 [4]: 173 µM
IC50 [5]: 187 µM

C=C(C)[C@@H]1CC[C@]2(C(=O)OC)CC[C@]3(C)[C@H](CC[C@@H]4[C@@](C)(CC(=O)OC)[C@H](C(C)(C)C(=O)OC)CC[C@]43C)[C@@H]12
IC50 [1]: 104 µM
IC50 [2]: 250 µM
IC50 [3]: 76 µM
IC50 [4]: 99 µM
IC50 [5]: 245 µM

C=C(C)[C@@H]1CC[C@]2(C(=O)OC)CC[C@]3(C)[C@H](CC[C@@H]4[C@@]5(C)CC[C@H](OC(C)=O)C(C)(C)[C@@H]5CC[C@]43C)[C@@H]12
IC50 [1]: 250 µM
IC50 [2]: 16 µM
IC50 [3]: 250 µM
IC50 [4]: 250 µM
IC50 [5]: 250 µM

C=C(C)[C@@H]1CC[C@]2(C(=O)O)CC[C@]3(C)[C@H](CC[C@@H]4[C@@]5(C)C=C(O)C(=O)C(C)(C)[C@@H]5CC[C@]43C)[C@@H]12
IC50 [6]: 23 µM
IC50 [7]: 10 µM
IC50 [1]: 6 µM
IC50 [2]: 4 µM
IC50 [8]: 14 µM
IC50 [3]: 11 µM
IC50 [4]: 6 µM
IC50 [5]: 10 µM
IC50 [9]: 23 µM

C=C(C)[C@@H]1CC[C@]2(C(=O)OC)CC[C@]3(C)[C@H](CC[C@@H]4[C@@]5(C)CC(=O)OC(=O)C(C)(C)[C@@H]5CC[C@]43C)[C@@H]12
IC50 [1]: 29 µM
IC50 [2]: 7 µM
IC50 [3]: 12 µM
IC50 [4]: 12 µM
IC50 [5]: 89 µM

C=C(C)[C@@H]1CC[C@]2(C(=O)O)CC[C@]3(C)[C@H](CC[C@@H]4[C@@]5(C)[C@@H](O)OC(=O)C(C)(C)[C@@H]5CC[C@]43C)[C@@H]12
IC50 [1]: 81 µM
IC50 [2]: 96 µM
IC50 [3]: 81 µM
IC50 [4]: 58 µM
IC50 [5]: 79 µM

C=C(C)[C@@H]1CC[C@]2(C(=O)OC)CC[C@]3(C)[C@H](CC[C@@H]4[C@@]5(C)C=C(O)C(=O)C(C)(C)[C@@H]5CC[C@]43C)[C@@H]12
IC50 [6]: 9 µM
IC50 [7]: 11 µM
IC50 [1]: 8 µM
IC50 [2]: 23 µM
IC50 [8]: 6 µM
IC50 [3]: 8 µM
IC50 [4]: 6 µM
IC50 [5]: 10 µM
IC50 [9]: 11 µM

C=C(C)[C@@H]1CC[C@]2(C(=O)O)CC[C@]3(C)[C@H](CC[C@@H]4[C@@]5(C)CC[C@H](O)C(C)(C)[C@@H]5CC[C@]43C)[C@@H]12 [BETULINIC ACID]
IC50 [6]: 196 µM
IC50 [7]: 146 µM
IC50 [1]: 56 µM
IC50 [2]: 27 µM
IC50 [8]: 143 µM
IC50 [3]: 112 µM
IC50 [4]: 89 µM
IC50 [5]: 91 µM
IC50 [9]: 21 µM

C=C(C)[C@@H]1CC[C@]2(C(=O)O)CC[C@]3(C)[C@H](CC[C@@H]4[C@@]5(C)CCC(=O)C(C)(C)[C@@H]5CC[C@]43C)[C@@H]12 [BETUNOLIC ACID]
IC50 [6]: 36 µM
IC50 [2]: 17 µM
IC50 [8]: 29 µM
IC50 [3]: 17 µM

C=C(C)[C@@H]1CC[C@]2(C(=O)OC)CC[C@]3(C)[C@H](CC[C@@H]4[C@@]5(C)CC[C@H](O)C(C)(C)[C@@H]5CC[C@]43C)[C@@H]12 [METHYL BETULINATE]
IC50 [1]: 71 µM
IC50 [2]: 150 µM
IC50 [3]: 65 µM
IC50 [4]: 61 µM
IC50 [5]: 109 µM

C=C(C)[C@@H]1CC[C@]2(C(=O)OC)CC[C@]3(C)[C@H](CC[C@@H]4[C@@]5(C)CCC(=O)C(C)(C)[C@@H]5CC[C@]43C)[C@@H]12 [METHYL BETULONATE]
IC50 [1]: 239 µM
IC50 [3]: 250 µM
IC50 [4]: 250 µM
IC50 [5]: 250 µM
